For one cell line, relative viability results are on record in the supplement of paper PMC10307832.

Holding throughout (assay): relative viability (nuclei count vs DMSO), 5 days (fraction); higher = more cells survive
Compound in experiment [1]: COc1cc(Nc2ncc(F)c(Nc3ccc4c(n3)NC(=O)C(C)(C)O4)n2)cc(OC)c1OC [R406] + O=C(CCCCCCC(=O)Nc1ccccc1)NO [Vorinostat] (partner 1 µM)
In outline:
(§1)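 The day after seeding in 1536-well plates, lung cancer cell lines were treated by pin tool with a single drug, or with a fixed anchor-drug dose together with five library-drug doses (not always all listed) in √10 steps. After 5 days, a combined fix-and-stain solution (final 0.05% Triton X-100, 1% formaldehyde, 1 ug/ml Hoechst) was added. Nuclei counted on 4× images gave relative viability as treated counts over vehicle counts, reported as the median of duplicate plates.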

Compound in experiment [2]: O=C(/C=C/c1cccnc1)NCCCCC1CCN(C(=O)c2ccccc2)CC1 [Daporinad] + CS(=O)(=O)N1CCN(Cc2cc3nc(-c4cccc5[nH]ncc45)nc(N4CCOCC4)c3s2)CC1 [Pictilisib] (partner 1 µM)
The essentials: as §1

Compound in experiment [3]: COc1cc(Nc2ncc(F)c(Nc3ccc4c(n3)NC(=O)C(C)(C)O4)n2)cc(OC)c1OC [R406] + COc1cccc2cc(-c3nc([C@H]4CC[C@H](C(=O)O)CC4)n4ncnc(N)c34)[nH]c12 [OSI-027] (partner 0.5 µM)
In outline: as §1

Compound in experiment [4]: O=C(/C=C/c1cccnc1)NCCCCC1CCN(C(=O)c2ccccc2)CC1 [Daporinad] + C[C@]1(O)C[C@@H](c2nc(-c3ccc4ccc(-c5ccccc5)nc4c3)c3c(N)nccn32)C1 [Linsitinib] (partner 1 µM)
In outline: as §1

For the cell line UMC-11, the relative viability in experiment [1] (first compound 0.08 µM) came out at 0.361; in experiment [1] (first compound 0.253 µM) it was 0.312; in experiment [1] (first compound 0.8 µM), 0.39; in experiment [1] (first compound 2.53 µM), 0.304; in experiment [1] (first compound 8 µM), 0.127; in experiment [2] (first compound 0.0005 µM), 0.908. The relative viability was found to be 0.668 in experiment [2] (first compound 0.001581 µM); 0.928 in experiment [2] (first compound 0.005 µM); 0.993 in experiment [2] (first compound 0.01581 µM); 0.429 in experiment [3] (first compound 0.08 µM); 0.517 in experiment [3] (first compound 0.253 µM); 0.488 in experiment [3] (first compound 0.8 µM). In addition, the relative viability in experiment [3] (first compound 2.53 µM) worked out at 0.463; in experiment [3] (first compound 8 µM), 0.253; in experiment [4] (first compound 0.0005 µM), 1.02; in experiment [4] (first compound 0.001581 µM), 0.975; in experiment [4] (first compound 0.005 µM), 1.1; in experiment [4] (first compound 0.01581 µM), 1.03.
